# Assay results published in patent publication US20200297790A1, “HERBAL COMPOSITION FOR PREVENTING OR TREATING BENIGN PROSTATIC HYPERPLASIA DISEASE” (priority 2017, published 2020).
# Experiments:
# [1] = Body weight change in testosterone-induced benign prostatic hyperplasia rat model; assay type: in vivo; details: weighed weekly, five times; extracts 300 mg/kg or finasteride 10 mg/kg orally, 30 days; FIG. 4
# Excerpt: (§1) After being acclimated for one week or longer, male SD rats 9 weeks old (weighing 350 g or less) were divided on the basis of weight into (1) a normal group, (2) a benign prostatic hyperplasia-induced and distilled water-administered group (negative control), (3) benign prostatic hyperplasia-induced and composite herbal extract-administered group ([…]), (4) benign prostatic hyperplasia-induced and single Semen Cuscutae herbal extract-administered group (Comparative Example 1-1), (5) benign prostatic hyperplasia-induced and single Semen nelumbinis herbal extract-administered group (Comparative Example 1-2), (6) benign prostatic hyperplasia-induced and single Taraxaci Herba herbal extract-administered group (Comparative Example 1-3), and (7) benign prostatic hyperplasia-induced and finasteride-administered group (positive control). In order to induce benign prostatic hyperplasia, testosterone (dissolved in cotton seed oil) was subcutaneously injected at a dose of 3 mg/kg once/three days for a total of 10 times. For the control, the same amount of cotton seed oil was subcutaneously injected. The composite herbal extract of Preparation Example 1-6 and the single herbal extracts of Comparative Example 1 were each orally administered at a dose of 300 mg/kg once a day for 30 days. […]
# [2] = test system: testosterone-induced benign prostatic hyperplasia rat model; assay: Size of acinus in excised prostate tissue (H&E staining) of testosterone-induced benign prostatic hyperplasia rat model; assay type: in vivo; details: extracts 300 mg/kg or finasteride 10 mg/kg orally, 30 days
# Description: For the control, the same amount of cotton seed oil was subcutaneously injected. […] For the negative control, oral administration of distilled water alone was carried out. From the starting day of the test, the rats were weighed five times in total at regular intervals of one week. On the next day after the final administration and treatment, the rats were sacrificed with carbon dioxide gas. The prostate glands were excised and weighed. % Inhibition of prostate enlargement was expressed according to the following mathematical formula on the basis of the weight measurements. […] Slides of the stained tissues were observed and photographed with an optical microscope. From the images, sizes of the acini in the prostate glands were measured. The reduction in the size of acinus of each experimental group is expressed as a percentage relative to the size of acinus of the normal group.
# [3] = test system: testosterone-induced benign prostatic hyperplasia rat model; assay: Inhibition of prostate enlargement (prostate weight) in testosterone-induced benign prostatic hyperplasia rat model; assay type: in vivo; details: SD rats, testosterone 3 mg/kg s.c., extracts 300 mg/kg or finasteride 10 mg/kg orally once a day for 30 days
# Excerpt: as §1
# LNCaP cells = assay: Inhibition of testosterone-induced proliferation of prostate epithelial cell line (MTT assay); assay type: cell-based, human; details: 2 μM testosterone alone, 72 hours
# Description: LNCaP cells, which are the prostate epithelial cells derived from human prostate cancer, were seeded at a density of 1×10^5 cells/well in 24-well plates containing an RPMI medium (Gibco U.S.A) and stabilized overnight. Then, the cells were cultured for 24 hours in a serum-free medium. After removal of the medium, the cells were incubated for 72 hours with 2 μM of testosterone (Tes) alone or in combination with 50, 100, or 200 μg/ml of the composite herbal extract of Preparation Example 1-6 or 4. Thereafter, growth of the cells was evaluated by MTT assay. Cell proliferation data were expressed as percentages of the cell counts relative to that of the Tes-treated group.
# LNCaP cells, which are the prostate epithelial cells derived from human prostate cancer, were seeded at a density of 1×10^5 cells/well in 24-well plates containing an RPMI medium (Gibco, U.S.A) and stabilized overnight. […] Thereafter, growth of the cells was evaluated by MTT assay. Cell proliferation data were expressed as percentages of the cell counts relative to that of the Tes-treated group.
# LNCaP cells, which are the prostate epithelial cells derived from human prostate cancer, were seeded at a density of 1×10^5 cells/well in 24-well plates containing an RPMI medium (Gibco, U.S.A) and stabilized overnight. […] Thereafter, growth of the cells was evaluated by MTT assay. […]
SMILES,body weight difference among testosterone-treated groups [1],Reductive effect on size of acinus (%) [2] [%],Size of acinus (%) ([2]; percentage relative to normal group),Prostate weight/body weight [3] [g/kg],% Inhibition of prostate enlargement ([3]; vs negative control) [%],growth of prostate epithelial cells when treated with testosterone (LNCaP cells)
CC(C)(C)NC(=O)[C@H]1CC[C@H]2[C@@H]3CC[C@H]4NC(=O)C=C[C@]4(C)[C@H]3CC[C@]12C [Finasteride],significant differences in body weight were not observed,42,279 ± 10,1.31 ± 0.10,43,–
C[C@]12CC[C@H]3[C@@H](CCC4=CC(=O)CC[C@@]43C)[C@@H]1CC[C@@H]2O [testosterone],–,–,–,–,–,about 62.5%
